Test results taken from US9192601B2, “Methods for enhancing muscle performance and tone” (Salk Institute for Biological Studies, priority 2006, dated 2015).

How the values were obtained:
[1] = test system: type I (slow oxidative) muscle fibers; assay: Meta-chromatic staining of gastrocnemius fiber types; format: in vivo, mouse
Description: In this assay, muscle fibers with high ATPase activity {e.g., type I (slow oxidative) muscle fibers) are darkly stained.

epididymal white adipose = assay: Epididymal fat to body weight ratio and H&E staining of white adipose; format: in vivo, mouse; conditions: GW1516 in combination with exercise
Description: Hematoxylin and eosin (H&E) staining of white adipose tissue paraffin sections was performed as previously described (Wang et al., PLoS Biol., 2:e294, 2004; Wang et al., Cell, 113:159-70, 2003).

[2] = Exercise effect in healthy adult human subjects (Example 9); format: in vivo; conditions: 1 to 20 mg per day oral with aerobic exercise
Description: Healthy adult human subjects perform aerobic exercise (e.g., running) for at least 30 minutes (e.g., 30-90 minutes) for at least 3-4 days per week (e.g., 3-7 days per week) for at least 2 weeks (e.g., at least 4-12 weeks). The exercise is performed at 40%-50% maximal heart rate, […] maximal heart rate, 60%-70% maximal heart rate, or 75%-80% maximal heart rate, where maximum heart rate for a human subject is calculated as: 220 bps−(age of the subject). […] Subjects can continue to perform aerobic exercise while receiving GW1516. […] The exercise effect achieved in the treated subjects (e.g., running endurance) can be compared to such an effect in untreated subjects. Exercise effect can be measured using methods known in the art, such as measuring aerobic or running endurance (for example measuring distance run until exhaustion or amount of time to run a particular distance). In some instances, the exercise effect of interest is increased in treated subjects by at least 5%, such as at least 10% as compared to untreated subjects.

quadriceps muscle = assay: Microarray analysis of quadriceps (Affymetrix mouse genome 430A 2.0); format: in vivo
[3] = GW + Tr: GW1516 + exercise training, quadriceps
[4] = GW + Tr: GW1516 + exercise training, quadriceps, listed as GW
[5] = GW: GW1516 alone, sedentary, quadriceps, — = not regulated

Cc1cc(SCc2sc(-c3ccc(C(F)(F)F)cc3)nc2C)ccc1OCC(=O)O [GW1516, (2-methyl-4(((4-methyl-2-(4-trifluoromethylphenyl)-1,3-thiazol-5-yl)methyl)sulfanyl)phenoxy)acetic acid]
number of type I muscle fibers in exercised muscle ([1]; GW1516 treatment and exercise training): significantly increased | proportion of type I muscle fibers vs vehicle ([1]; sedentary mice, gastrocnemius): no significant difference | increase in proportion of type I fibers vs vehicle-treated sedentary mice ([1]; trained mice): 38% | cross-sectional area of the adipocytes (epididymal white adipose): decreased | increase of exercise effect vs untreated subjects [2]: at least 5% | number of genes regulated in quadriceps (quadriceps muscle; GW1516 treatment alone): 96 genes | 1810073N04Rik expression (quadriceps muscle; [3]): 2.326 | 2310076L09Rik expression (quadriceps muscle; [3]): 1.868 | Abcb1a expression (quadriceps muscle; [3]): 10.322 | Acaa2 expression (quadriceps muscle; [3]): 1.926 | Acadl expression (quadriceps muscle; [3]): 2.549 | Acat2 expression (quadriceps muscle; [3]): 1.625 | Acly expression (quadriceps muscle; [3]): 2.606 | Acp5 expression (quadriceps muscle; [3]): 3.91 | Adfp (adipose differentiation related protein) expression (quadriceps muscle; [3]): 2.009 | Adipoq expression (quadriceps muscle; [3]): 3.082 | Adrb3 expression (quadriceps muscle; [3]): 3.83 | Aldh1a7 expression (quadriceps muscle; [3]): 3.862 | Angptl4 expression (quadriceps muscle; [3]): 5.495 | Aplp2 expression (quadriceps muscle; [3]): 1.937 | Arcn1 expression (quadriceps muscle; [3]): 1.617 | Asb15 expression (quadriceps muscle; [3]): 1.78 | Atf3 expression (quadriceps muscle; [3]): 1.802 | BC054059 expression (quadriceps muscle; [3]): 5.08 | Btg2 expression (quadriceps muscle; [3]): 1.601 | C530043G21Rik expression (quadriceps muscle; [3]): 1.5 | Car3 expression (quadriceps muscle; [3]): 2.339 | Cat expression (quadriceps muscle; [3]): 1.82 | Cd36 expression (quadriceps muscle; [3]): 1.584 | Cdo1 expression (quadriceps muscle; [3]): 3.266 | Cebpa expression (quadriceps muscle; [3]): 2.168 | Cfd expression (quadriceps muscle; [3]): 2.828 | Cidea expression (quadriceps muscle; [3]): 49.625 | Cidec expression (quadriceps muscle; [3]): 4.771 | Clcn5 expression (quadriceps muscle; [3]): 2.333 | Cldn5 expression (quadriceps muscle; [3]): 1.545 | Cpt1a expression (quadriceps muscle; [3]): 2.753 | Crybb1 expression (quadriceps muscle; [3]): 2.457 | Cyp2e1 expression (quadriceps muscle; [3]): 2.941 | D4Wsu53e expression (quadriceps muscle; [3]): 1.586 | Dbi expression (quadriceps muscle; [3]): 1.936 | Dgat2 expression (quadriceps muscle; [3]): 2.784 | Dnajb1 expression (quadriceps muscle; [3]): 3.59 | Dusp7 expression (quadriceps muscle; [3]): 1.661 | Dync1i2 expression (quadriceps muscle; [3]): 1.705 | Egr1 expression (quadriceps muscle; [3]): 2.577 | Fabp3 expression (quadriceps muscle; [3]): 1.833 | Fabp4 expression (quadriceps muscle; [3]): 2.189 | Fasn expression (quadriceps muscle; [3]): 6.323 | Fbp2 expression (quadriceps muscle; [3]): 2.808 | Fos expression (quadriceps muscle; [3]): 3.9 | Gpam expression (quadriceps muscle; [3]): 2.207 | Gpiap1 expression (quadriceps muscle; [3]): 1.83 | Hba-a1 expression (quadriceps muscle; [3]): 1.632 | Hbb-b2|Hbb-y expression (quadriceps muscle; [3]): 1.626 | Hip1r expression (quadriceps muscle; [3]): 1.75 | Hipk3 expression (quadriceps muscle; [3]): 1.694 | Hp expression (quadriceps muscle; [3]): 1.679 | Hsd17b12 expression (quadriceps muscle; [3]): 2.376 | Hsp90aa1 expression (quadriceps muscle; [3]): 1.513 | Hspa1b expression (quadriceps muscle; [3]): 8.845 | Hspa9a expression (quadriceps muscle; [3]): 1.61 | Ifi27 expression (quadriceps muscle; [3]): 1.714 | Igf2 expression (quadriceps muscle; [3]): 1.635 | Igfbp5 expression (quadriceps muscle; [3]): 1.772 | Il6st expression (quadriceps muscle; [3]): 1.972 | Junb expression (quadriceps muscle; [3]): 1.792 | Klf3 expression (quadriceps muscle; [3]): 1.901 | Ldhb expression (quadriceps muscle; [3]): 2.541 | Lig3 expression (quadriceps muscle; [3]): 2.693 | Lipe expression (quadriceps muscle; [3]): 3.032 | Lmx1a expression (quadriceps muscle; [3]): 4.106 | Lpl expression (quadriceps muscle; [3]): 1.659 | Mb expression (quadriceps muscle; [3]): 1.578 | Mgl1 / Mgll (monoglyceride lipase) expression (quadriceps muscle; [3]): 1.907 | Mgst1 expression (quadriceps muscle; [3]): 1.916 | Mlycd expression (quadriceps muscle; [3]): 1.781 | Mpv17l expression (quadriceps muscle; [3]): 1.988 | Mybph expression (quadriceps muscle; [3]): 1.578 | Myh2 expression (quadriceps muscle; [3]): 2.194 | Neurl expression (quadriceps muscle; [3]): 1.941 | Nle1 expression (quadriceps muscle; [3]): 1.831 | Nr1d2 expression (quadriceps muscle; [3]): 1.794 | Nr4a2 expression (quadriceps muscle; [3]): 1.776 | Pck1 expression (quadriceps muscle; [3]): 3.518 | Pdk4 expression (quadriceps muscle; [3]): 2.27 | Ppp2r1b expression (quadriceps muscle; [3]): 2.509 | Ptplb expression (quadriceps muscle; [3]): 2.38 | Rab5b expression (quadriceps muscle; [3]): 1.603 | Rbbp4 expression (quadriceps muscle; [3]): 2.865 | Rbp4 expression (quadriceps muscle; [3]): 2.065 | Retn expression (quadriceps muscle; [3]): 4.114 | Rpol-4 expression (quadriceps muscle; [3]): 2.498 | Rragd expression (quadriceps muscle; [3]): 2.101 | Rtbdn expression (quadriceps muscle; [3]): 2.32 | Scd1 expression (quadriceps muscle; [3]): 6.494 | Scd2 expression (quadriceps muscle; [3]): 1.849 | Serpina1a expression (quadriceps muscle; [3]): 0.396 | Serpinf1 expression (quadriceps muscle; [3]): 7.765 | Slc1a5 expression (quadriceps muscle; [3]): 1.939 | Slc25a20 expression (quadriceps muscle; [3]): 1.865 | Slc27a1 expression (quadriceps muscle; [3]): 3.58 | Sln expression (quadriceps muscle; [3]): 0.363 | Sod3 expression (quadriceps muscle; [3]): 1.606 | Surf4 expression (quadriceps muscle; [3]): 2.091 | Svs5 expression (quadriceps muscle; [3]): 0.095 | Tgfbr2 expression (quadriceps muscle; [3]): 2.13 | Thrsp expression (quadriceps muscle; [3]): 2.685 | Tkt expression (quadriceps muscle; [3]): 2.256 | Tpcn1 expression (quadriceps muscle; [3]): 2.842 | Trf expression (quadriceps muscle; [3]): 1.907 | Trim35 expression (quadriceps muscle; [3]): 1.856 | Ucp3 expression (quadriceps muscle; [3]): 2.943 | Wnt7b expression (quadriceps muscle; [3]): 4.449 | Ywhag expression (quadriceps muscle; [3]): 1.87 | Zfp261 expression (quadriceps muscle; [3]): 1.847 | erythroid differentiation regulator 1 expression (quadriceps muscle; [3]): 0.619 | Acly expression (quadriceps muscle; [4]): 2.458 | Cat expression (quadriceps muscle; [4]): 1.728 | Hsp90aa1 expression (quadriceps muscle; [4]): 1.455 | Slc25a20 expression (quadriceps muscle; [4]): 1.704 | Ankrd1 expression (quadriceps muscle; [5]): 4.235 | Cryab expression (quadriceps muscle; [5]): 1.561 | Crygf expression (quadriceps muscle; [5]): 1.801 | Dnaja4 expression (quadriceps muscle; [5]): 1.756 | Hspb1 expression (quadriceps muscle; [5]): 1.815 | Hspb7 expression (quadriceps muscle; [5]): 3.414 | Mt1 expression (quadriceps muscle; [5]): 2.364 | Mt2 expression (quadriceps muscle; [5]): 2.151 | Smad3 expression (quadriceps muscle; [5]): 1.841 | Tnfrsf12a expression (quadriceps muscle; [5]): 1.759 | number of genes regulated in quadriceps (quadriceps muscle; combination of GW1516 and exercise): 130 genes
